# Where “and” joins values, the source holds several entries; their conditions need not be identical. Equal entries are not always repeated.
# Assays:
# [1] = system: S. aureus NCTC 8325; set-up: method as in Le et al., Nat Chem. 2020; details: ref Le et al., Nat Chem. 2020; cited from earlier work
# [2] = target: T1, wt SpsB (Staphylococcus aureus, UniProt P0A070); test: FRET-based signal peptidase assay with membrane-bound SpsB (wt); format: biochemical, S. aureus
# T1 construct: recombinantly expressed full-length S. aureus SpsB (wt) or mutants; made in house; host or cells: E. coli BL21(DE3)pLysS, membrane fraction
# Experimental: For preparation of E. coli membrane fractions harboring overexpressed S. aureus SpsB, E. coli BL21(DE3) pLysS cells harboring pET-55-DEST-fl-SpsB or respective mutant plasmids (F67A, Y75A, F158A, Q165A, F67A-Y75A, F67A-F158A, Y75A-F158A, F67A-Y75A-F158A) were grown in LB medium (supplemented with Ampicillin (100 µg/mL) and Chloramphenicol (34 µg/mL)) at 37°C (200 rpm) to OD600 ≈ 0.6 and protein overexpression was induced by the addition of isopropyl-1-thio-β-galactopyranoside (IPTG, 0.5 mM). After incubation (22 °C, 200 rpm, 3 h), cells were harvested by centrifugation (6000 × g, 4 °C, 10 min) and subsequently washed with PBS. The cell pellet was resuspended in 5 mL Tris-HCl buffer (50 mM, pH = 7.5) and lysed using a bead beater homogenizer (3 cycles: 5500 rpm for 45 s, 30 s cooling; Precellys Ceramic Kit CK01L, 7.0 mL tubes; Precellys 24 Homogenizer, Bertin Technologies). The lysate was centrifuged (12,000 × g, 4 °C, 10 min) to remove intact cells and debris. Membranes were collected from supernatant (39,000 × g, 4 °C, 75 min) and resuspended in ice-cold sodium phosphate buffer (50 mM, pH 7.5). Protein concentration was measured using the Pierce BCA Protein assay kit (Thermo Fisher Scientific, Pierce Biotechnology) and snap-frozen aliquots were stored at −80 °C.
# Signal cleavage activities of recombinantly expressed full-length S. aureus SpsB (wt) or mutants (F67A, Y75A, F158A, Q165A, F67A-Y75A, F67A-F158A, Y75A-F158A, F67A-Y75A-F158A) in E. coli membranes were measured using a Förster Resonance Energy Transfer (FRET) assay as previously described[20],[36].
# A synthetic peptide substrate based on SceD modified by 4-(4- dimethylaminophenylazo)benzoic (DABCYL) acid and 5-((2-aminoethyl)amino)-1- naphthalenesulfonic acid (EDANS) was used (DABCYL-[…]-EDANS, AnaSpec) as FRET substrate. Assays were performed with overexpressed wildtype SpsB (wt) or mutant (F67A, Y75A, F158A, Q165A, F67A-Y75A, F67A-F158A, Y75A-F158A, F67A-Y75A-F158A) in E. coli membranes. As controls for background activity, respective E. coli membranes without IPTG induction were used (see Experimental procedure “Preparation of E. coli membrane (control) fractions. Membranes containing recombinant wildtype SpsB or mutant (50 µg/mL membrane concentration, 100 µL/well final volume, sodium phosphate buffer, 50 mM, pH 7.5, addition of detergent if indicated; final concentrations in buffer: 0.1% CHAPS, 0.001% NP-40 or 0.1% Tween) were pre-treated with PK150, Arylomycin A4 or DMSO as a control (final concentration 1%) at 37 °C for 5 min. After addition of FRET substrate (10 µM final substrate concentration; final DMF concentration from substrate stock 1%), fluorescence turnover was monitored by an Infinite™ M Nano Tecan 200Pro reader (340 nm excitation and 510 nm emission wavelengths, fluorescence top reading mode) at 37 °C for at least 2 h.
# The assay was performed in technical triplicates for at least three biologically independent experiments (n ≥ 3). Significance of cleavage activity was determined via a two-tailed Students t-test for comparison of membranes treated with DMSO to PK150.
# [3] = target: T2, SpsB Q165A mutant (Staphylococcus aureus, UniProt P0A070, Q165A); test: FRET-based signal peptidase assay with membrane-bound SpsB, Q165A mutant; format: biochemical, S. aureus; details: 10 µM; relative to DMSO
# T2 construct: recombinantly expressed full-length S. aureus SpsB (wt) or mutants; made in house; host or cells: E. coli BL21(DE3)pLysS, membrane fraction
# T2 sequence (P0A070 1-191 Q165A): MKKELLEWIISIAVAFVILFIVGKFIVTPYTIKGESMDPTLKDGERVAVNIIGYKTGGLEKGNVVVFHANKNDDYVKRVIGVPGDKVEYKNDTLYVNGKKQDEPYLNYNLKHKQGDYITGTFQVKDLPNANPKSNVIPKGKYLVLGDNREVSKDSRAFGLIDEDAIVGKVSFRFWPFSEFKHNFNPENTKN
# Experimental: Cloning of full-length SpsB (fl-SpsB) was performed using the Invitrogen Gateway Technology in previous works by Le et al.. fl-SpsB was cloned into the destination vector pET-55-DEST (Novagen) and transformed into chemically competent E. coli BL21(DE3)pLysS cells (Promega) to prevent leaky protein overexpression. Plasmid DNA of wildtype SpsB pET-55-DEST-fl-SpsB was purified using a plasmid Miniprep Kit (peqGOLD Plasmid Miniprep Kit II, VWR Peqlab) according to the manufacturer’s instructions and used as template for all single point mutations (F67A, Y75A, F158A, Q165A). […]
# For preparation of E. coli membrane fractions harboring overexpressed S. aureus SpsB, E. coli BL21(DE3) pLysS cells harboring pET-55-DEST-fl-SpsB or respective mutant plasmids (F67A, Y75A, F158A, Q165A, F67A-Y75A, F67A-F158A, Y75A-F158A, F67A-Y75A-F158A) were grown in LB medium (supplemented with Ampicillin (100 µg/mL) and Chloramphenicol (34 µg/mL)) at 37°C (200 rpm) to OD600 ≈ 0.6 and protein overexpression was induced by the addition of isopropyl-1-thio-β-galactopyranoside (IPTG, 0.5 mM). […] Protein concentration was measured using the Pierce BCA Protein assay kit (Thermo Fisher Scientific, Pierce Biotechnology) and snap-frozen aliquots were stored at −80 °C. […]
# [4] = target: T1, wt SpsB; details: cited from earlier work
smiles,measurement,setting,value
"O=C(Nc1ccc2c(c1)OC(F)(F)O2)Nc1ccc(Cl)c(C(F)(F)F)c1 [PK150, (4-Chloro-3-(trifluoromethyl)phenyl)-3-(2,2-difluorobenzo[d][1,3]dioxol-5-yl)urea]",MIC,[1],0.3 µM
same,allosteric stimulation of SpsB activity,[2]; 10 µM in E. coli induced SpsB membranes,170%
same,elevated activity in wildtype SpsB,"[2]; 10 µM, relative to DMSO",1.7 fold
same,activation of wt SpsB in presence of detergents,"[2]; 0.01% Tween, 0.001% NP-40, 0.1% CHAPS (<cmc), PK150 10 µM",Activation of wt SpsB with PK150 could still be shown for all detergents
same,activity at 0.195 µM,"[2]; PK150 0.195uM, replicates, read-out: wt PK150 (normalized activity)",111%
same,activity at 0.39 µM,"[2]; PK150 0.39uM, replicates, read-out: wt PK150 (normalized activity)",127%
same,activity at 1.5625 µM,"[2]; PK150 1.5625uM, replicates, read-out: wt PK150 (normalized activity)",131%
same,wt PK150 10 µM norm. value,"[2]; PK150 10 µM, substrate cleavage rate normalized to DMSO (100), single biological replicates",153.034 and 181.137 and 173.665 and 173.73 and 163.958 and 182.132
same,overactivation at higher compound concentrations,[2]; higher compound concentrations (Figure 3a),up to 250%
same,elevated activity in Q165A mutant,[3],1.7 fold
same,overactivation compared to DMSO,"[4]; 50 µM compound concentration, ref Le et al., Nat Chem. 2020",250%
same,overactivation of SpsB,[4],up to 3 fold

# — publication PMC11266668, “Unraveling the mechanism of small molecule induced activation of Staphylococcus aureus signal peptidase IB” (Communications Biology, 2024)
